{"source": "patent US8192962B2", "about": "“Processes for detecting toxic substances” (Daikin Industries, Ltd., priority 2001, dated 2012)", "test_system": "Transport facilitation protein genes", "test": "DNA chip mRNA expression in yeast, transport facilitation protein genes (Table 5)", "assay_type": "cell-based, Saccharomyces cerevisiae S288C", "procedure,_shortened": "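Measured as treated-to-untreated fluorescence ratio on a full-genome yeast DNA chip. Cells (S288C, YPD, 25° C.) were exposed in log phase for two hours to one chemical, dosed to curb growth without killing.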"}
{"smiles": "N#Cc1c(Cl)c(Cl)c(Cl)c(C#N)c1Cl", "note": "[(9), 2,4,5,6-tetrachloro-1,3-benzenedicarbonitrile]", "values": [{"measurement": "The level of expressed mRNA in the presence of chemical substance/The level of expressed mRNA in the absence of chemical substance", "setting": "yeast gene YBL030C", "result": 0.4}, {"measurement": "The level of expressed mRNA in the presence of chemical substance/The level of expressed mRNA in the absence of chemical substance", "setting": "yeast gene YBL099W", "result": 0.9}, {"measurement": "The level of expressed mRNA in the presence of chemical substance/The level of expressed mRNA in the absence of chemical substance", "setting": "yeast gene YBR052C", "result": 2.3}, {"measurement": "The level of expressed mRNA in the presence of chemical substance/The level of expressed mRNA in the absence of chemical substance", "setting": "yeast gene YBR068C", "result": 0.8}, {"measurement": "The level of expressed mRNA in the presence of chemical substance/The level of expressed mRNA in the absence of chemical substance", "setting": "yeast gene YBR127C", "result": 0.6}, {"measurement": "The level of expressed mRNA in the presence of chemical substance/The level of expressed mRNA in the absence of chemical substance", "setting": "yeast gene YBR132C", "result": 0.8}, {"measurement": "The level of expressed mRNA in the presence of chemical substance/The level of expressed mRNA in the absence of chemical substance", "setting": "yeast gene YBR207W", "result": 1.7}, {"measurement": "The level of expressed mRNA in the presence of chemical substance/The level of expressed mRNA in the absence of chemical substance", "setting": "yeast gene YBR293W", "result": 5.5}, {"measurement": "The level of expressed mRNA in the presence of chemical substance/The level of expressed mRNA in the absence of chemical substance", "setting": "yeast gene YBR294W", "result": 5.2}, {"measurement": "The level of expressed mRNA in the presence of chemical substance/The level of expressed mRNA in the absence of chemical substance", "setting": "yeast gene YBR295W", "result": 1.2}, {"measurement": "The level of expressed mRNA in the presence of chemical substance/The level of expressed mRNA in the absence of chemical substance", "setting": "yeast gene YBR298C", "result": 0.3}, {"measurement": "The level of expressed mRNA in the presence of chemical substance/The level of expressed mRNA in the absence of chemical substance", "setting": "yeast gene YCL025C", "result": 0.3}, {"measurement": "The level of expressed mRNA in the presence of chemical substance/The level of expressed mRNA in the absence of chemical substance", "setting": "yeast gene YCL038C", "result": 1.1}, {"measurement": "The level of expressed mRNA in the presence of chemical substance/The level of expressed mRNA in the absence of chemical substance", "setting": "yeast gene YCR024C-A", "result": 0.2}, {"measurement": "The level of expressed mRNA in the presence of chemical substance/The level of expressed mRNA in the absence of chemical substance", "setting": "yeast gene YCR037C", "result": 0.6}, {"measurement": "The level of expressed mRNA in the presence of chemical substance/The level of expressed mRNA in the absence of chemical substance", "setting": "yeast gene YCR098C", "result": 1.4}, {"measurement": "The level of expressed mRNA in the presence of chemical substance/The level of expressed mRNA in the absence of chemical substance", "setting": "yeast gene YDL128W", "result": 0.5}, {"measurement": "The level of expressed mRNA in the presence of chemical substance/The level of expressed mRNA in the absence of chemical substance", "setting": "yeast gene YDL198C", "result": 1.9}, {"measurement": "The level of expressed mRNA in the presence of chemical substance/The level of expressed mRNA in the absence of chemical substance", "setting": "yeast gene YDL210W", "result": 1.2}, {"measurement": "The level of expressed mRNA in the presence of chemical substance/The level of expressed mRNA in the absence of chemical substance", "setting": "yeast gene YDL245C", "result": 0.4}, {"measurement": "The level of expressed mRNA in the presence of chemical substance/The level of expressed mRNA in the absence of chemical substance", "setting": "yeast gene YDR038C", "result": 1.4}, {"measurement": "The level of expressed mRNA in the presence of chemical substance/The level of expressed mRNA in the absence of chemical substance", "setting": "yeast gene YDR039C", "result": 1.8}, {"measurement": "The level of expressed mRNA in the presence of chemical substance/The level of expressed mRNA in the absence of chemical substance", "setting": "yeast gene YDR086C", "result": 0.6}, {"measurement": "The level of expressed mRNA in the presence of chemical substance/The level of expressed mRNA in the absence of chemical substance", "setting": "yeast gene YDR270W", "result": 2.9}, {"measurement": "The level of expressed mRNA in the presence of chemical substance/The level of expressed mRNA in the absence of chemical substance", "setting": "yeast gene YDR298C", "result": 1.0}, {"measurement": "The level of expressed mRNA in the presence of chemical substance/The level of expressed mRNA in the absence of chemical substance", "setting": "yeast gene YDR342C", "result": 0.2}, {"measurement": "The level of expressed mRNA in the presence of chemical substance/The level of expressed mRNA in the absence of chemical substance", "setting": "yeast gene YDR343C", "result": 0.3}, {"measurement": "The level of expressed mRNA in the presence of chemical substance/The level of expressed mRNA in the absence of chemical substance", "setting": "yeast gene YDR345C", "result": 0.2}, {"measurement": "The level of expressed mRNA in the presence of chemical substance/The level of expressed mRNA in the absence of chemical substance", "setting": "yeast gene YDR387C", "result": 1.4}, {"measurement": "The level of expressed mRNA in the presence of chemical substance/The level of expressed mRNA in the absence of chemical substance", "setting": "yeast gene YDR497C", "result": 0.4}, {"measurement": "The level of expressed mRNA in the presence of chemical substance/The level of expressed mRNA in the absence of chemical substance", "setting": "yeast gene YEL027W", "result": 0.9}, {"measurement": "The level of expressed mRNA in the presence of chemical substance/The level of expressed mRNA in the absence of chemical substance", "setting": "yeast gene YEL063C", "result": 0.8}, {"measurement": "The level of expressed mRNA in the presence of chemical substance/The level of expressed mRNA in the absence of chemical substance", "setting": "yeast gene YEL065W", "result": 0.1}, {"measurement": "The level of expressed mRNA in the presence of chemical substance/The level of expressed mRNA in the absence of chemical substance", "setting": "yeast gene YER053C", "result": 1.3}, {"measurement": "The level of expressed mRNA in the presence of chemical substance/The level of expressed mRNA in the absence of chemical substance", "setting": "yeast gene YFL011W", "result": 0.3}, {"measurement": "The level of expressed mRNA in the presence of chemical substance/The level of expressed mRNA in the absence of chemical substance", "setting": "yeast gene YFL041W", "result": 0.8}, {"measurement": "The level of expressed mRNA in the presence of chemical substance/The level of expressed mRNA in the absence of chemical substance", "setting": "yeast gene YFL050C", "result": 0.5}, {"measurement": "The level of expressed mRNA in the presence of chemical substance/The level of expressed mRNA in the absence of chemical substance", "setting": "yeast gene YFL054C", "result": 2.0}, {"measurement": "The level of expressed mRNA in the presence of chemical substance/The level of expressed mRNA in the absence of chemical substance", "setting": "yeast gene YGL006W", "result": 3.0}, {"measurement": "The level of expressed mRNA in the presence of chemical substance/The level of expressed mRNA in the absence of chemical substance", "setting": "yeast gene YGL008C", "result": 0.0}, {"measurement": "The level of expressed mRNA in the presence of chemical substance/The level of expressed mRNA in the absence of chemical substance", "setting": "yeast gene YGL104C", "result": 4.6}, {"measurement": "The level of expressed mRNA in the presence of chemical substance/The level of expressed mRNA in the absence of chemical substance", "setting": "yeast gene YGL167C", "result": 1.3}, {"measurement": "The level of expressed mRNA in the presence of chemical substance/The level of expressed mRNA in the absence of chemical substance", "setting": "yeast gene YGL255W", "result": 0.3}, {"measurement": "The level of expressed mRNA in the presence of chemical substance/The level of expressed mRNA in the absence of chemical substance", "setting": "yeast gene YGR055W", "result": 5.0}, {"measurement": "The level of expressed mRNA in the presence of chemical substance/The level of expressed mRNA in the absence of chemical substance", "setting": "yeast gene YGR065C", "result": 1.2}, {"measurement": "The level of expressed mRNA in the presence of chemical substance/The level of expressed mRNA in the absence of chemical substance", "setting": "yeast gene YGR082W", "result": 0.6}, {"measurement": "The level of expressed mRNA in the presence of chemical substance/The level of expressed mRNA in the absence of chemical substance", "setting": "yeast gene YGR096W", "result": 0.8}, {"measurement": "The level of expressed mRNA in the presence of chemical substance/The level of expressed mRNA in the absence of chemical substance", "setting": "yeast gene YGR138C", "result": 0.5}, {"measurement": "The level of expressed mRNA in the presence of chemical substance/The level of expressed mRNA in the absence of chemical substance", "setting": "yeast gene YGR191W", "result": 0.1}, {"measurement": "The level of expressed mRNA in the presence of chemical substance/The level of expressed mRNA in the absence of chemical substance", "setting": "yeast gene YGR197C", "result": 16.7}, {"measurement": "The level of expressed mRNA in the presence of chemical substance/The level of expressed mRNA in the absence of chemical substance", "setting": "yeast gene YGR224W", "result": 0.9}]}
